Measurements as given in patent publication US4368199A, “Novel derivatives of 3,4,5-trimethoxy cinnamoyl piperazine, their salts, the process for preparing the same and their application in therapeutics” (Delalande S.A., priority 1980, dated 1983).
Where a name gives a salt, the structure may show the parent alone. Read-outs that look alike come from different tables or passages of the source.

Tests used:
dogs = experiment: Haemodynamic tests on dogs anaesthetized with sodic pentobarbital (arterial pressure, cardiac frequency, coronary flow, cardiac contractile force); type: in vivo; conditions: dog; for change in vivo at 0.625 mg/kg / change in vivo at 2.5 mg/kg: Canis lupus familiaris, iv
Method: Tests were carried out on dogs anaesthetized with sodic pentobarbital (30 mg/kg/i.v.) and the compounds of formula (I) were administered intravenously. The activity on the cardiac contractile force was measured with a BRODIE and WALTON stress gauge fixed to the left ventricle.
The arterial pressure was measured at the femoral artery with a SANBORN pressure sensor.
The cardiac frequency was automatically counted by means of a cardiotachymeter from the pulse pressure wave.
The coronary flow was measured by means of an electromagnetic probe of the STATHAM or BIOTRONEX type at the coronary artery.

[1] = Acute toxicity in the mouse (MILLER and TAINTER method); conditions: in vivo; for LD50: read-out: LD 50 (mouse)
Method: The acute toxicity was assessed in accordance with the MILLER and TAINTER method (Proc. Sci. Exp. Biol. Med. 1944, 57, 261)

[2] = 0.625 mg/kg/i.v., read-out: Increase of the cardiac contractile force
[3] = 0.625 mg/kg/i.v., read-out: Increase of the coronary flow
[4] = 0.625 mg/kg/i.v., read-out: Variation of the average arterial pressure
[5] = 0.625 mg/kg/i.v., read-out: Variation of the cardiac frequency
[6] = 2.5 mg/kg/i.v., read-out: Increase of the coronary flow
[7] = 2.5 mg/kg/i.v., read-out: Variation of the average arterial pressure
[8] = 2.5 mg/kg/i.v., read-out: Variation of the cardiac frequency
[9] = 2.5 mg/kg/i.v., read-out: Increase of the cardiac contractile force
[10] = po, at 1000 mg/kg, read-out: LD 50 column: percentage in parentheses (p.o.)

SMILES: COc1ccc(CN2CCN(C(=O)C=Cc3cc(OC)c(OC)c(OC)c3)CC2)cc1OC [Compound 2]
- change in vivo at 0.625 mg/kg (dogs; [2]): 71%
- change in vivo at 0.625 mg/kg (dogs; [3]): 93%
- change in vivo at 0.625 mg/kg (dogs; [4]): -12%
- change in vivo at 0.625 mg/kg (dogs; [5]): 6%
- change in vivo at 2.5 mg/kg (dogs; [6]): 76 to 398%
- change in vivo at 2.5 mg/kg (dogs; [7]): -25%
- change in vivo at 2.5 mg/kg (dogs; [8]): 8%
- Increase of the coronary flow: duration (dogs; 0.625 mg/kg/i.v.): < 20 mn
- Variation of the cardiac frequency: duration (dogs; 0.625 mg/kg/i.v.): < 5 mn
- Increase of the cardiac contractile force (dogs; 2.5 mg/kg/i.v.): +58 to
- Increase of the cardiac contractile force: duration (dogs; 2.5 mg/kg/i.v.): > 308 mn
- Increase of the coronary flow: duration (dogs; 2.5 mg/kg/i.v.): > 30 mn
- LD50 ([1]; iv): 105 mg/kg

SMILES: COc1cc(C=CC(=O)N2CCN(CCc3cccc(O)c3)CC2)cc(OC)c1OC [Compound 3]
- change in vivo at 0.625 mg/kg (dogs; [2]): 47%
- change in vivo at 0.625 mg/kg (dogs; [3]): 26%
- change in vivo at 0.625 mg/kg (dogs; [4]): -9%
- change in vivo at 0.625 mg/kg (dogs; [5]): 0%
- change in vivo at 2.5 mg/kg (dogs; [9]): 62%
- change in vivo at 2.5 mg/kg (dogs; [6]): 62%
- change in vivo at 2.5 mg/kg (dogs; [7]): -36%
- change in vivo at 2.5 mg/kg (dogs; [8]): 7%
- Increase of the cardiac contractile force: duration (dogs; 0.625 mg/kg/i.v.): 30 mn
- Increase of the coronary flow: duration (dogs; 0.625 mg/kg/i.v.): 5 mn
- Variation of the average arterial pressure: duration (dogs; 2.5 mg/kg/i.v.): > 30 mn
- LD50 ([1]; iv): > 200 mg/kg

SMILES: COc1cc(C=CC(=O)N2CCN(CC(=O)c3ccc(OC)c(OC)c3OC)CC2)cc(OC)c1OC [Compound 7]
- change in vivo at 0.625 mg/kg (dogs; [2]): 69%
- change in vivo at 0.625 mg/kg (dogs; [3]): 277%
- change in vivo at 0.625 mg/kg (dogs; [4]): -22%
- change in vivo at 0.625 mg/kg (dogs; [5]): -2 to 15%
- change in vivo at 2.5 mg/kg (dogs; [9]): 51%
- change in vivo at 2.5 mg/kg (dogs; [6]): 416%
- change in vivo at 2.5 mg/kg (dogs; [7]): -35%
- change in vivo at 2.5 mg/kg (dogs; [8]): -8 to 9%
- Increase of the coronary flow: duration (dogs; 0.625 mg/kg/i.v.): < 5 mn
- Increase of the cardiac contractile force: duration (dogs; 2.5 mg/kg/i.v.): < 10 mn
- Increase of the coronary flow: duration (dogs; 2.5 mg/kg/i.v.): < 20 mn
- mortality [1, 10]: 0%

SMILES: COc1cc(C=CC(=O)N2CCN(CC(=O)c3ccc(OC)c4c3OCCO4)CC2)cc(OC)c1OC [Compound 10]
- change in vivo at 0.625 mg/kg (dogs; [2]): 9%
- change in vivo at 0.625 mg/kg (dogs; [3]): 39%
- change in vivo at 0.625 mg/kg (dogs; [4]): -7%
- change in vivo at 0.625 mg/kg (dogs; [5]): 2%
- change in vivo at 2.5 mg/kg (dogs; [9]): 53%
- change in vivo at 2.5 mg/kg (dogs; [6]): 46%
- change in vivo at 2.5 mg/kg (dogs; [7]): -16%
- change in vivo at 2.5 mg/kg (dogs; [8]): 12%
- Increase of the cardiac contractile force: duration (dogs; 0.625 mg/kg/i.v.): < 10 mn
- Variation of the average arterial pressure: duration (dogs; 0.625 mg/kg/i.v.): < 5 mn
- Variation of the cardiac frequency: duration (dogs; 0.625 mg/kg/i.v.): < 5 mn
- Increase of the cardiac contractile force: duration (dogs; 2.5 mg/kg/i.v.): 10 mn
- Variation of the average arterial pressure: duration (dogs; 2.5 mg/kg/i.v.): > 30 mn
- Variation of the cardiac frequency: duration (dogs; 2.5 mg/kg/i.v.): > 30 mn
- LD50 ([1]; iv): 180 mg/kg

SMILES: COc1cc(C=CC(=O)N2CCN(Cc3ccc(NC(C)=O)cc3)CC2)cc(OC)c1OC [Compound 41]
- change in vivo at 2.5 mg/kg (dogs; [9]): 35%
- change in vivo at 2.5 mg/kg (dogs; [7]): -36%
- change in vivo at 2.5 mg/kg (dogs; [8]): -16%
- LD50 ([1]; iv): > 200 mg/kg

SMILES: CNC(=O)Nc1ccc(CCN2CCN(C(=O)C=Cc3cc(OC)c(OC)c(OC)c3)CC2)cc1 [Compound 54]
- change in vivo at 2.5 mg/kg (dogs; [9]): 48%
- change in vivo at 2.5 mg/kg (dogs; [6]): 181%
- change in vivo at 2.5 mg/kg (dogs; [7]): -9%
- change in vivo at 2.5 mg/kg (dogs; [8]): 4%
- LD50 ([1]; iv): > 200 mg/kg

SMILES: COc1cc(C=CC(=O)N2CCN(CC(=O)c3ccc4ccccc4c3)CC2)cc(OC)c1OC [Compound 62]
- change in vivo at 2.5 mg/kg (dogs; [9]): 43%
- change in vivo at 2.5 mg/kg (dogs; [7]): -14%
- change in vivo at 2.5 mg/kg (dogs; [8]): 4%
- Increase of the cardiac contractile force: duration (dogs; 2.5 mg/kg/i.v.): > 30 mn
- Variation of the average arterial pressure: duration (dogs; 2.5 mg/kg/i.v.): 10 mn
- Variation of the cardiac frequency: duration (dogs; 2.5 mg/kg/i.v.): 5 mn
- LD50 ([1]; iv): 45 mg/kg

SMILES: COc1ccc(OC)c(C(=O)CN2CCN(C(=O)C=Cc3cc(OC)c(OC)c(OC)c3)CC2)c1 [Compound 70]
- change in vivo at 2.5 mg/kg (dogs; [9]): 50%
- change in vivo at 2.5 mg/kg (dogs; [6]): 27%
- change in vivo at 2.5 mg/kg (dogs; [7]): -21%
- change in vivo at 2.5 mg/kg (dogs; [8]): 5%
- LD50 ([1]; iv): 168 mg/kg

SMILES: COc1ccc(C(O)CN2CCN(C(=O)C=Cc3cc(OC)c(OC)c(OC)c3)CC2)c(OC)c1 (stereo not shown) [Compound 89]
- change in vivo at 2.5 mg/kg (dogs; [9]): 51%
- change in vivo at 2.5 mg/kg (dogs; [7]): -38%
- change in vivo at 2.5 mg/kg (dogs; [8]): -10%
- Variation of the average arterial pressure: duration (dogs; 2.5 mg/kg/i.v.): > 30 mn
- LD50 ([1]; iv): > 100 mg/kg

SMILES: COc1ccc(OC)c(C(O)CN2CCN(C(=O)C=Cc3cc(OC)c(OC)c(OC)c3)CC2)c1 (stereo not shown) [Compound 90]
- change in vivo at 2.5 mg/kg (dogs; [9]): 42%
- change in vivo at 2.5 mg/kg (dogs; [6]): 15%
- change in vivo at 2.5 mg/kg (dogs; [7]): -11%
- change in vivo at 2.5 mg/kg (dogs; [8]): 0%
- mortality [1, 10]: 80%

SMILES: CNC(=O)Nc1ccc(C(O)CN2CCN(C(=O)C=Cc3cc(OC)c(OC)c(OC)c3)CC2)cc1 (stereo not shown) [Compound 95]
- change in vivo at 2.5 mg/kg (dogs; [9]): 21%
- change in vivo at 2.5 mg/kg (dogs; [6]): 27%
- change in vivo at 2.5 mg/kg (dogs; [7]): -20%
- change in vivo at 2.5 mg/kg (dogs; [8]): 8%
- Increase of the cardiac contractile force: duration (dogs; 2.5 mg/kg/i.v.): 10 mn
- LD50 ([1]; iv): > 200 mg/kg

SMILES: COc1ccc(CC(O)CN2CCN(C(=O)C=Cc3cc(OC)c(OC)c(OC)c3)CC2)cc1OC (stereo not shown) [Compound 102, 3-[4-(3,4,5-trimethoxycinnamoyl) 1-piperazinyl]1-(3,4-dimethoxy)phenyl 2-propanol hydrochloride hydrate]
- change in vivo at 2.5 mg/kg (dogs; [9]): 13%
- change in vivo at 2.5 mg/kg (dogs; [6]): 34%
- change in vivo at 2.5 mg/kg (dogs; [7]): -26%
- change in vivo at 2.5 mg/kg (dogs; [8]): -4%
- Increase of the cardiac contractile force: duration (dogs; 2.5 mg/kg/i.v.): 10 mn
- Variation of the average arterial pressure: duration (dogs; 2.5 mg/kg/i.v.): > 30 mn
- LD50 ([1]; iv): > 200 mg/kg

SMILES: COc1cc(C=CC(=O)N2CCN(CCc3c[nH]c4ccccc34)CC2)cc(OC)c1OC [Compound 105]
- change in vivo at 2.5 mg/kg (dogs; [9]): 17%
- change in vivo at 2.5 mg/kg (dogs; [6]): 55%
- change in vivo at 2.5 mg/kg (dogs; [7]): -34%
- change in vivo at 2.5 mg/kg (dogs; [8]): 0%
- Variation of the average arterial pressure: duration (dogs; 2.5 mg/kg/i.v.): > 30 mn
- LD50 ([1]; iv): > 200 mg/kg

SMILES: COc1cc(C=CC(=O)N2CCN(C3CCc4cc(O)c(O)cc4C3)CC2)cc(OC)c1OC (stereo not shown) [Compound 108, 2-[4-(3,4,5-trimethoxycinnamoyl) 1-piperazinyl] 1,2,3,4-tetrahydro 6,7-dihydroxy naphthyl hydrate]
- change in vivo at 2.5 mg/kg (dogs; [9]): 44%
- change in vivo at 2.5 mg/kg (dogs; [6]): 29%
- change in vivo at 2.5 mg/kg (dogs; [7]): -20%
- change in vivo at 2.5 mg/kg (dogs; [8]): 3%
- Variation of the average arterial pressure: duration (dogs; 2.5 mg/kg/i.v.): > 30 mn
- mortality ([1]; iv, at 200 mg/kg, read-out: LD 50 column: percentage in parentheses): 20%
- LD50 ([1]; iv): 200 mg/kg
